Where “and” joins values, the source holds several entries; their conditions need not be identical. Equal entries are not always repeated.
Legend:
[1] = Integrated adverse events from placebo controlled studies of ganaxolone; assay type: in vivo, human; settings: Ganaxolone n = 750, placebo controlled studies
Excerpt: As noted in Table 6, across multiple placebo controlled studies of ganaxolone across multiple indications including epilepsy, few side effects are reported that occur at a rate higher than those reported in placebo-treated subjects. These side effects are generally mild and have always been reversible. […] Four of the 7 children enrolled into this study remain on ganaxolone. Adverse events in this study are similar to those reported for all placebo controlled studies completed to date as summarized in Table 6 below.

rabbits = test: Local tolerance study in rabbits; assay type: in vivo, rabbit
Experimental: When given IV to rats and dogs, the main dose limiting toxicity finding was sedation. The no observed adverse effect level (NOAEL) after IV dosing in rats for 14 days was established at 42 mg/kg/day for males and 30 mg/kg/day for females. The NOAEL in dog after administration of ganaxolone by IV bolus followed by continuous IV infusion for 28 days was 7.20 mg/kg/day, which corresponded to a steady-state concentration of approximately 330 ng/mL and 333 ng/mL. There were no findings in a local tolerance study in rabbits.

dogs [2] = test: Cardiovascular safety pharmacology, single dose in dogs; assay type: in vivo, dog; settings: single dose of up to 15 mg/kg
rats = test: Intravenous ganaxolone in rats: EEG and status epilepticus models; assay type: in vivo, rat
[3] = test system: subjects with focal onset seizure disorder; settings: post hoc, subjects taking 3 or more concomitant AEDs, p=0.02; cited from earlier work
female rats = test: Pulmonary safety pharmacology in female rats; assay type: in vivo, rat; settings: doses up to 40 mg/kg
[4] = human plasma following oral administration; cited from earlier work
dogs [5] = test: 1-year (chronic oral) dog toxicity study; assay type: in vivo
Excerpt: There was a physiologically normal shortening of the PR and QT interval in response to the higher heart rate. There was no effect on QRS duration or QTc interval.
In the oral dosing programme, a therapeutic index from non-human NOAEL levels to the adult partial-onset seizure epilepsy and the pharmacokinetics study is approximately 2 to 3-fold in dogs (sedation).

[6] = test system: children with Lennox-Gastaut Syndrome; test: Phase 2 open-label trial, LGS cohort, seizure efficacy; assay type: in vivo, human
Excerpt: Example 3 concerns a Phase 2 Multicenter, Open-Label Proof-of-Concept Trial of ganaxolone (GNX) in cohorts of children having genetic epilepsies (PCDH19, CDKL5 LGS, and CSWS) (ClinicalTrials.gov Identifier: NCT02358538). There were 11 female children with PCDH19 epilepsy between 5-16 years old with a confirmed genetic mutation. There were 6 female and 1 male children with confirmed genetic mutations in the CDKL5 cohort. There were 10 children in the Lennox Gastaut Syndrome cohort. Two children with CSWS were enrolled into the study. The study was conducted with 12 weeks baseline, and up to 26 weeks of treatment followed by a 52 week open label treatment. The primary efficacy was the percentage change in seizure frequency per 28 days relative to baseline calculated using daily seizure diary. [Time Frame: 26 weeks]. Secondary Outcome Measures were: Clinician Global Impression of Change score as assessed by questionnaire. [Time Frame: 26 Weeks]; Patient Global Impression of Change score as assessed by questionnaire. [Time Frame: 26 Weeks]; Evaluation of safety and tolerability of open-label ganaxolone as adjunctive therapy for uncontrolled seizures in children with rare genetic epilepsies, based on adverse event log and other clinical safety assessments. [Time Frame: 26 weeks]; Responder rates [Time Frame: 26 weeks]; and Seizure free days [Time Frame: 26 weeks].
Following screening and baseline evaluations, consenting patients enrolled into a 26-week study during which investigators were allowed to flexibly dose ganaxolone up to a dose of 1,800 mg/day for patients whose body weight was >30 kg, or up to 63 mg/kg/day for patients whose body-weight was <30 kg. The primary efficacy measure is % change from baseline in the 28-day seizure frequency count. Safety and tolerability were within the secondary objectives of the study.
In this study, oral ganaxolone suspension or capsules were administered up to a total of 63 mg/kg/day (maximum 1800 mg/day) over 2-4 weeks. About six-eight titration steps are used, depending on the size of the patient. Children larger than 30 kg may take the ganaxolone capsules. The ganaxolone oral suspension was administered through an oral dosing syringe three times daily. The ganaxolone capsules were administered twice daily. The patients experience better absorption of the ganaxolone with meals (milk).
After establishing baseline seizure frequency, qualifying subjects entered the study and were treated with open-label ganaxolone oral suspension or ganaxolone capsules at doses up to a maximum of 1800 mg/day for up to 6 months. Maximum study participation was 94 weeks: a screening period up to 12 weeks to establish baseline seizure frequency, up to 26 weeks of treatment, a 52 week extension for subjects who benefited from ganaxolone treatment, and up to 4 weeks of down titration period. […] Refractive cases of LGS or CSWS that had prior response to steroid or ACTH could also have been enrolled.
Ganaxolone oral suspension was administered through an oral dosing syringe by parent or legal guardian 3 times daily (TID), following the morning, noon, and evening meal or snack. Each dose was separated by a minimum of 4 hours and a maximum of 8 hours. A missed dose of ganaxolone could have been taken up to 4 hours before the next scheduled dose; otherwise, the missed dose was not to be given.
Ganaxolone capsules were administered with a glass of water or other liquid 2 times daily (BID), following the morning and evening meal or snack. Ganaxolone was provided as either an oral suspension or capsules based on the subject's weight at study entry. Ganaxolone oral suspension was administered through an oral dosing syringe TID by a parent or guardian, following the morning, midday, and evening meal or snack. Each dose was separated by a minimum of 4 hours and a maximum of 8 hours. Ganaxolone capsules were administered BID, following the morning and evening meal or snack. […]

Structure (SMILES): CC(=O)[C@H]1CC[C@H]2[C@@H]3CC[C@H]4C[C@](C)(O)CC[C@]4(C)[C@H]3CC[C@]12C [Ganaxolone, 3α-hydroxy-3β-methyl-5α-pregnan-20-one]
- Adverse event: Dizziness [1]: 95 (13%) n (%)
- Adverse event: Fatigue [1]: 51 (7%) n (%)
- Adverse event: Headache [1]: 37 (5%) n (%)
- Adverse event: Somnolence [1]: 134 (18%) n (%)
- Local tolerance (rabbits): no findings
- Effect on cardiovascular parameters (dogs [2]): no effect
- Sedative / anaesthetic response (rats): did not cause a full anaesthetic response
- EEG effect (rats; otherwise normal rats): induce burst suppression-like electroencephalogram (EEG) patterns
- Greater reduction in median seizure frequency than placebo [3]: 20%
- Pulmonary effects (female rats): No pulmonary effects
- Half-life [4]: approximately 20 hours
- Effect on QRS duration or QTc (dogs [5]; 1-year dog study): no treatment effect
- ECG finding (dogs [5]; 1-year dog study, after 3 months of dosing, 4 animals, >190 bpm): transient sinus tachycardia
- Cmax (dogs [5]; 1-year dog toxicity study): > 1500 ng/mL
- Findings at mean Cmax greater than 1500 ng/mL (dogs [5]; chronic oral toxicity study in dogs, 10 and 15 mg/kg/day): increased weight and total plasma cholesterol levels
- Therapeutic index from non-human NOAEL levels (dogs [5]; oral dosing programme, dogs (sedation)): 2 to 3 fold
- 28-day seizure frequency, sum of individual seizures and clusters, post-baseline 26-week open-label period, Mean (SD) ([6]; LGS N=10, MITT): 263.66 (502.176)
- 28-day seizure frequency, sum of individual seizures and clusters, post-baseline 26-week open-label period, Median ([6]; LGS N=10, MITT): 65.08
- 28-day seizure frequency, sum of individual seizures and clusters, post-baseline through Month 3 (Day 91), Mean (SD) ([6]; LGS N=10, MITT): 263.91 (502.477)
- 28-day seizure frequency, sum of individual seizures and clusters, post-baseline through Month 3 (Day 91), Median ([6]; LGS N=10, MITT): 75.91
- Percent change from baseline (at Day 91), 28-day seizure frequency, sum of individual seizures and clusters, Mean (SD) ([6]; LGS N=10, MITT): 122.10% and 122.10 (321.124) %
- Percent change from baseline (at Week 26), 28-day seizure frequency, sum of individual seizures and clusters, Mean (SD) ([6]; LGS N=10, MITT): 125.38% and 125.38 (319.051) %
- Percent change from baseline (at Week 26), 28-day seizure frequency, sum of individual seizures and clusters, Median ([6]; LGS N=10, MITT): −9.19%
- Mean percent change in 28-day total seizure frequency from baseline to Week 26 ([6]; LGS cohort, PP Population): 18.43%
- Median percent change in 28-day total seizure frequency from baseline to Week 26 ([6]; LGS cohort, PP Population): 11.15%
- Clinical global impression of improvement: much improved ([6]; LGS cohort, end of Week 26): 1 subject
- Clinical global impression of improvement: very much improved ([6]; LGS cohort, end of Week 26): 1 subject
- Percent change from baseline (at Day 91), 28-day individual seizure frequency, Mean (SD) ([6]; LGS n=9, MITT): 226.72% and 226.72 (496.750) %
- Percent change from baseline (at Day 91), 28-day individual seizure frequency, Median ([6]; LGS n=9, MITT): −9.56%
- Percent change from baseline (at Week 26), 28-day individual seizure frequency, Mean (SD) ([6]; LGS n=9, MITT): 229.90% and 229.90 (494.164) %
- Percent change from baseline (at Week 26), 28-day individual seizure frequency, Median ([6]; LGS n=9, MITT): 5.04%
- 28-day individual seizure frequency, post-baseline 26-Week open-label period, Mean (SD) ([6]; LGS n=10, MITT): 257.07 (503.453)
- 28-day individual seizure frequency, post-baseline 26-Week open-label period, Median ([6]; LGS n=10, MITT): 55.93
- 28-day individual seizure frequency, post-baseline through Month 3 (Day 91), Mean (SD) ([6]; LGS n=10, MITT): 256.48 (503.934)
- 28-day individual seizure frequency, post-baseline through Month 3 (Day 91), Median ([6]; LGS n=10, MITT): 64.71
